{"source": "paper PMC11343776", "about": "(Clinical Pharmacokinetics, 2024)", "key": {"CYP3A": {"test_system": "CYP3A", "settings": "capivasertib 400 mg b.i.d., intermittent schedule; cited from earlier work"}, "[1]": {"experiment": "Population pharmacokinetic model of capivasertib plasma concentrations", "type": "in vivo, patients with advanced or metastatic solid tumours"}, "[2]": {"experiment": "Model simulations and covariate assessment", "design": "species or system patients with advanced or metastatic solid tumours", "settings": "for decrease of CL/F after approximately 120 h: multiple doses"}, "CYP3A4": {"test_system": "CYP3A4", "settings": "single dose capivasertib 80 mg; cited from earlier work"}, "[3]": {"settings": "dose range 80–800 mg; cited from earlier work"}, "[4]": {"settings": "healthy subjects; cited from earlier work"}, "ROCK1/2": {"test_system": "ROCK1/2", "experiment": "In vitro cellular kinase inhibition: ROCK1/2", "type": "cell-based"}, "[5]": {"settings": "400 mg b.i.d. (4/3) after multiple doses"}, "[6]": {"settings": "body weight 47 kg vs 67 kg reference"}}, "note": "“Also recorded” adds a separate entry of the source."}
{"molecule": "NC1(C(=O)N[C@@H](CCO)c2ccc(Cl)cc2)CCN(c2nc[nH]c3nccc2-3)CC1", "note": "[capivasertib]", "values": [{"measurement": "increase in midazolam exposure", "setting": "CYP3A", "result": "up to 75%"}, {"measurement": "effective t½", "setting": "[1]; 400 mg b.i.d. (4/3)", "result": 8.34, "unit": "h"}, {"measurement": "apparent volume of distribution at steady state", "setting": "[1]; at 400 mg", "result": 255.6, "unit": "L"}, {"measurement": "Lag1_tab absorption lag time for tablets", "setting": "[1]; final model estimate, semi-fasted or fed", "result": 0.21, "unit": "h"}, {"measurement": "fraction of dose absorbed by zero-order process", "setting": "[1]; oral", "result": 20, "unit": "%"}, {"measurement": "fraction of dose absorbed using the first-order mechanism", "setting": "[1]; oral", "result": 80, "unit": "%"}, {"measurement": "time to maximum concentration", "setting": "[1]; slight variations with dose level, body weight, food status", "result": 1.4, "unit": "h"}, {"measurement": "median AUC12h,ss", "setting": "[2]; [5]", "result": 7730, "unit": "ng·h/mL"}, {"measurement": "median Cmax,ss", "setting": "[2]; [5]", "result": 1340, "unit": "ng/mL"}, {"measurement": "decrease of CL/F after approximately 120 h", "setting": "[2]; 400 mg b.i.d.", "result": 18, "unit": "%"}, {"measurement": "decrease of CL/F after approximately 120 h", "setting": "[2]; 480 mg b.i.d.", "result": 22, "unit": "%"}, {"measurement": "dose proportionality of AUC and Cmax", "setting": "[2]; 80–480 mg after multiple doses", "result": "proportional; also recorded: approximately proportionally"}, {"measurement": "dose proportionality of AUC and Cmax", "setting": "[2]; beyond 480 mg after multiple doses", "result": "more than proportional; also recorded: more than proportionally"}, {"measurement": "increase in AUC12h,ss", "setting": "[2]; [6]", "result": 14, "unit": "%"}, {"measurement": "increase in Cmax,ss", "setting": "[2]; [6]", "result": 14, "unit": "%"}, {"measurement": "reduction in CLss/F", "setting": "[2]; [6]", "result": 12, "unit": "%"}, {"measurement": "predicted impact of significant covariates on exposure to capivasertib", "setting": "[2]; body weight, dose, paclitaxel, food, formulation", "result": "< 20", "unit": "%"}, {"measurement": "increase in CLss/F", "setting": "[2]; concomitant paclitaxel vs no paclitaxel", "result": 20, "unit": "%"}, {"measurement": "time after which steady state is achieved", "setting": "[2]; simulations, three schedules, different dose levels", "result": "approximately 120 h"}, {"measurement": "increase of capivasertib AUC by itraconazole", "setting": "CYP3A4", "result": 95, "unit": "%"}, {"measurement": "dose proportionality of plasma exposure", "setting": "[3]", "result": "approximately dose proportional"}, {"measurement": "terminal half-life (t½)", "setting": "[3]", "result": "approximately 10 hours"}, {"measurement": "terminal half-life (t½), range", "setting": "[3]", "result": "7 to 15", "unit": "h"}, {"measurement": "renal clearance as share of total clearance", "setting": "[4]", "result": 21, "unit": "%"}, {"measurement": "inhibition of ROCK-mediated phosphorylation of cofilin", "setting": "ROCK1/2", "result": "not effective"}]}
